Assays:
[1] = system: Pseudomonas aeroginosa, ATCC 15442; assay: Time-Kill Procedure (ASTM), rate of kill; format: cell-based, Pseudomonas aeruginosa
Protocol: (§1) The rate of kill for these organisms upon exposure to 9-decenoic acid was determined using the American Society for Testing and Materials (ASTM) procedure entitled “Standard Test Method for the Assessment of Microbiocidal Activity of Test Materials Using a Time-Kill Procedure”, October 1998. This procedure incorporates the recommendations described in the “Manual of Clinical Microbiology,”5th ed., edited by A. B. Balows et al., ASM, Washington, and is directed by the Federal Register, June 1994.
(§2) Stock cultures were transferred into TSB and incubated for 18-24 hours at 37±2° C. A second transfer was made onto TSA plates and were incubated for 18-24 hours at 37±2° C. The plates were removed from incubation and the bacterial growth washed from the agar surface using Butterfield's Phosphate Buffered Dilution Water (PBDW). The bacterial suspension was adjusted to contain approximately 10^8 Colony Forming Units (CFU)/ml with PBDW using spectrophometric methods extant in the laboratory.
(§3) The concentrated 9-decenoic acid was diluted 1:40 in filter sterilized isopropanol to yield a 2.5% stock solution. Subsequent dilutions to the 9-decenoic acid stock solutions were made with sterile Deionized Water (DI) to achieve concentrations of 0.1%, 0.05%, 0.01%, and 0.001%. The pH was determined for each dilution; pH values ranged from 4.4-4.1. Additionally, the 9-decenoic acid stock solution was adjusted to pH 7 with 1 N NaOH and serially diluted with sterile DI to achieve concentrations of 1.0%, 0.75% and 0.5%.
(§4) Compliant with the ASTM procedure cited, for each challenge microorganism a 9.9 ml aliquot of the prepared 9-decenoic acid suspension was added to a sterile tube. A 0.1 ml aliquot of the standardized inoculum was added to the 9-decenoic acid solution representing the start of the test exposure. The inoculated 9-decenoic acid solution was immediately mixed thoroughly. The inoculated suspension was held at room temperature for 0.5, 2, 5, 7 and 10 minute exposure times for tests run at ˜pH 4. The pH 7 tests were held at room temperature for 0.5 and 2 minutes.
(§5) At each exposure sample time, a 1.0 ml aliquot of the inoculated 9-decenoic acid suspension was transferred to 9.0 ml of D/E Neutralizing Broth. Additional ten-fold serial dilutions were made in PBDW and plated in duplicate on TSA. All plates were incubated for 48 hours at 37±2° C. and visually examined for growth. The plates are enumerated, recorded and log kill determined for each time point.
(§6) The following study controls were conducted: culture purity, neutralizer sterility, initial suspension population, test population, neutralization verification and a negative control using isopropanol. Culture purity was verified by performing a streak plate for isolated colonies on the each culture used. All cultures were determined to be pure based on consistent colony morphology typical for the test organism. The neutralizer sterility was confirmed by no growth in an incubated sample.
(§7) The population of the initial and test culture were determined by serial dilution, plating and enumerating after incubation. The initial suspension were determined to be ≧10^4 CFU/ml. The test culture population was used for calculation of the log reduction achieved at each time point.
(§8) Neutralization effectiveness was verified by a filtration test. For each organism, four tubes were prepared with 9 ml D/E Neutralizing Broth and fewer than 100 CFU/ml of the organism. A 1.0 ml aliquot of prepared 9-decenoic acid was added to each tube. Immediately, the entire contents of 2 tubes were filtered through a filtration apparatus and rinsed with sterile diluent. The remaining 2 tubes were held at room temperature for 30 minutes and then the entire contents were filtered using the same procedure. The filters were aseptically transferred to TSA plates and incubated for 48 hours at 37±2° C. and visually examined for growth.
(§9) This control was inoculated, subcultured and incubated as in the test procedure.

[2] = system: Escherichia coli, ATCC 11229; assay: Time-Kill Procedure (ASTM) at pH 7; format: cell-based
Protocol: as §1, §2, §3, §4, §5, §6, §7, §8, §9

C=CCCCCCCCC(=O)O [9-decenoic acid]
0.83 log: Log reduction after exposure at pH 7 ([2]; 0.75%, pH 7, exposure 0.5 minutes)
0 log: Log reduction after exposure at pH 7 ([2]; 0.5%, pH 7, exposure 0.5 minutes) | Log reduction after exposure at pH 7 ([2]; 0.5%, pH 7, exposure 2 minutes)
>4.2 log: Log reduction after exposure at pH 7 ([2]; 0.75%, pH 7, exposure 2 minutes) | Log reduction after exposure at pH 7 ([2]; 1.0%, pH 7, exposure 0.5 minutes) | Log reduction after exposure at pH 7 ([2]; 1.0%, pH 7, exposure 2 minutes)
>6.1 log: Log reduction of organisms after exposure ([1]; 0.01%, pH 4.4, exposure 0.5 minutes) | Log reduction of organisms after exposure ([1]; 0.01%, pH 4.4, exposure 2 minutes) | Log reduction of organisms after exposure ([1]; 0.01%, pH 4.4, exposure 5 minutes) | Log reduction of organisms after exposure ([1]; 0.01%, pH 4.4, exposure 7 minutes) | Log reduction of organisms after exposure ([1]; 0.01%, pH 4.4, exposure 10 minutes) | Log reduction of organisms after exposure ([1]; 0.05%, pH 4.1, exposure 0.5 minutes) | Log reduction of organisms after exposure ([1]; 0.05%, pH 4.1, exposure 2 minutes) | Log reduction of organisms after exposure ([1]; 0.05%, pH 4.1, exposure 5 minutes) | Log reduction of organisms after exposure ([1]; 0.05%, pH 4.1, exposure 7 minutes) | Log reduction of organisms after exposure ([1]; 0.05%, pH 4.1, exposure 10 minutes) | Log reduction of organisms after exposure ([1]; 0.1%, pH 4.1, exposure 0.5 minutes) | Log reduction of organisms after exposure ([1]; 0.1%, pH 4.1, exposure 2 minutes) | Log reduction of organisms after exposure ([1]; 0.1%, pH 4.1, exposure 5 minutes) | Log reduction of organisms after exposure ([1]; 0.1%, pH 4.1, exposure 7 minutes) | Log reduction of organisms after exposure ([1]; 0.1%, pH 4.1, exposure 10 minutes)

— patent publication US7951232B2, “Surface coating compositions and methods” (Elevance Renewable Sciences, Inc., priority 2006, dated 2011)
